In paper PMC6946680, “Modulation of brain cation-Cl^− cotransport via the SPAK kinase inhibitor ZT-1a” (Nature Communications, 2020):
Values joined by “and” are separate entries in the source; they are usually repeats but may differ in a detail not shown here. Identical values can stand only once.

How the values were obtained:
NKCC1 pThr203/207/212 = assay: Immunoblot of NKCC1 p-Thr203/Thr207/Thr212 in HEK-293 cells; type: cell-based, human
Experimental: (§1) Band intensities were quantitated with ImageJ software. ***p < 0.001; **p < 0.01; *p < 0.05; ns, nonsignificant [by one-way ANOVA with post hoc testing (n = 6, error bars represent the mean ± SEM)].
(§2) Thirty-six hours post transfection, cells were stimulated with either control isotonic or hypotonic medium for a period of 30 min. […] Protein concentrations were determined using the Bradford method. Cells were treated with the indicated concentrations of the SPAK/OSR1 inhibitors.

KCC3 pThr1048 = assay: Immunoblot of KCC site 2 phosphorylation (KCC3 Thr1048) in HEK-293 cells transfected with FLAG-KCC3; type: cell-based, human
KCC3 pThr991 = assay: Immunoblot of KCC site 1 phosphorylation (KCC3 Thr991) in HEK-293 cells transfected with FLAG-KCC3; type: cell-based, human
SPAK pSer373 = assay: Immunoblot of SPAK/OSR1 p-Ser373/Ser325 in HEK-293 cells; type: cell-based, human
Experimental: as §1, §2

[1] = system: mouse model of ischemic stroke (tMCAO); assay: Infarct volume and hemispheric swelling (TTC) 24 h after tMCAO; type: in vivo; conditions: Fig 7b, individual mice
[2] = Hypotonic low Cl, compound concentration 1 (unit not given)
[3] = Hypotonic low Cl, compound concentration 3 (unit not given)
[4] = Hypotonic low Cl, compound concentration 10 (unit not given)
[5] = Isotonic control, compound concentration 1 (unit not given)
[6] = Isotonic control, compound concentration 10 (unit not given)
[7] = Isotonic control, compound concentration 3 (unit not given)

Cc1cc(C(C#N)c2ccc(Cl)cc2)c(Cl)cc1NC(=O)c1cc(Cl)cc(Cl)c1O (stereo not shown) [ZT-1f]
pThrNKCC1 / NKCC1 (NKCC1 pThr203/207/212; [2]): 0.511 and 0.43 and 0.48 and 0.55 | pThrNKCC1 / NKCC1 (NKCC1 pThr203/207/212; [3]): 0.144 and 0.139 and 0.1273 and 0.131 | pThrNKCC1 / NKCC1 (NKCC1 pThr203/207/212; [4]): 0.029 and 0.031 and 0.039 and 0.026 | pThrNKCC1 / NKCC1 (NKCC1 pThr203/207/212; [5]): 0.187 and 0.123 and 0.15 and 0.173 | pThrNKCC1 / NKCC1 (NKCC1 pThr203/207/212; [6]): 0.009 and 0.011 and 0.016 and 0.012 | Site-2 phospho / KCC (KCC3 pThr1048; [2]): 0.535 and 0.483 and 0.512 and 0.467 | Site-2 phospho / KCC (KCC3 pThr1048; [3]): 0.341 and 0.264 and 0.311 and 0.293 | Site-2 phospho / KCC (KCC3 pThr1048; [4]): 0.109 and 0.131 and 0.09 and 0.115 | Site-2 phospho / KCC (KCC3 pThr1048; [5]): 0.486 and 0.369 and 0.411 and 0.451 | Site-2 phospho / KCC (KCC3 pThr1048; [7]): 0.191 and 0.175 and 0.185 and 0.163 | Site-2 phospho / KCC (KCC3 pThr1048; [6]): 0.073 and 0.097 and 0.081 and 0.092 | Site-1 phospho / KCC (KCC3 pThr991; [2]): 0.591 and 0.61 and 0.578 and 0.662 | Site-1 phospho / KCC (KCC3 pThr991; [3]): 0.501 and 0.522 and 0.538 and 0.551 | Site-1 phospho / KCC (KCC3 pThr991; [4]): 0.304 and 0.287 and 0.249 and 0.4315 | Site-1 phospho / KCC (KCC3 pThr991; [5]): 0.52 and 0.572 and 0.465 and 0.481 | Site-1 phospho / KCC (KCC3 pThr991; [7]): 0.476 and 0.441 and 0.483 and 0.501 | Site-1 phospho / KCC (KCC3 pThr991; [6]): 0.412 and 0.386 and 0.366 and 0.392 | pSer373 / SPAK (SPAK pSer373; [2]): 0.49 and 0.51 and 0.58 and 0.552 | pSer373 / SPAK (SPAK pSer373; [3]): 0.255 and 0.215 and 0.1963 and 0.207 | pSer373 / SPAK (SPAK pSer373; [4]): 0.059 and 0.041 and 0.05 and 0.046 | pSer373 / SPAK (SPAK pSer373; [5]): 0.221 and 0.274 and 0.241 and 0.291 | pSer373 / SPAK (SPAK pSer373; [7]): 0.101 and 0.09 and 0.083 and 0.121 | pSer373 / SPAK (SPAK pSer373; [6]): 0.031 and 0.026 and 0.028

Cc1cc(C(C#N)c2ccc(Cl)cc2)c(Cl)cc1NC(=O)c1cc(F)ccc1O (stereo not shown) [ZT-1g]
pThrNKCC1 / NKCC1 (NKCC1 pThr203/207/212; [2]): 0.41 and 0.38 and 0.36 and 0.43 | pThrNKCC1 / NKCC1 (NKCC1 pThr203/207/212; [3]): 0.21 and 0.19 and 0.176 and 0.196 | pThrNKCC1 / NKCC1 (NKCC1 pThr203/207/212; [4]): 0.1 and 0.064 and 0.089 and 0.097 | pThrNKCC1 / NKCC1 (NKCC1 pThr203/207/212; [5]): 0.306 and 0.28 and 0.251 and 0.293 | pThrNKCC1 / NKCC1 (NKCC1 pThr203/207/212; [7]): 0.167 and 0.134 and 0.121 and 0.172 | pThrNKCC1 / NKCC1 (NKCC1 pThr203/207/212; [6]): 0.035 and 0.039 and 0.045 and 0.032 | Site-2 phospho / KCC (KCC3 pThr1048; [2]): 0.321 and 0.39 and 0.36 and 0.315 | Site-2 phospho / KCC (KCC3 pThr1048; [3]): 0.263 and 0.275 and 0.22 and 0.253 | Site-2 phospho / KCC (KCC3 pThr1048; [4]): 0.1 and 0.116 and 0.092 and 0.107 | Site-2 phospho / KCC (KCC3 pThr1048; [5]): 0.389 and 0.326 and 0.357 and 0.301 | Site-2 phospho / KCC (KCC3 pThr1048; [7]): 0.233 and 0.197 and 0.175 and 0.227 | Site-2 phospho / KCC (KCC3 pThr1048; [6]): 0.104 and 0.076 and 0.11 and 0.095 | Site-1 phospho / KCC (KCC3 pThr991; [2]): 1.44 and 1.512 and 1.37 and 1.612 | Site-1 phospho / KCC (KCC3 pThr991; [3]): 1.67 and 1.55 and 1.71 and 1.58 | Site-1 phospho / KCC (KCC3 pThr991; [4]): 1.28 and 1.109 and 1.16 and 1.25 | Site-1 phospho / KCC (KCC3 pThr991; [5]): 1.31 and 1.461 and 1.597 and 1.37 | Site-1 phospho / KCC (KCC3 pThr991; [7]): 1.16 and 1.27 and 1.05 and 1.23 | Site-1 phospho / KCC (KCC3 pThr991; [6]): 0.79 and 0.93 and 0.85 and 0.712 | pSer373 / SPAK (SPAK pSer373; [2]): 0.101 and 0.097 and 0.112 and 0.0903 | pSer373 / SPAK (SPAK pSer373; [3]): 0.058 and 0.071 and 0.066 and 0.078 | pSer373 / SPAK (SPAK pSer373; [4]): 0.044 and 0.027 and 0.035 and 0.041 | pSer373 / SPAK (SPAK pSer373; [5]): 0.034 and 0.041 and 0.029 and 0.046 | pSer373 / SPAK (SPAK pSer373; [6]): 0.017 and 0.015 and 0.013 and 0.016

Cc1cc(C(C#N)c2ccc(Cl)cc2)c(Cl)cc1NC(=O)c1cccc(F)c1O (stereo not shown) [ZT-1h]
pThrNKCC1 / NKCC1 (NKCC1 pThr203/207/212; [2]): 0.317 and 0.294 and 0.283 and 0.306 | pThrNKCC1 / NKCC1 (NKCC1 pThr203/207/212; [3]): 0.131 and 0.156 and 0.1342 and 0.125 | pThrNKCC1 / NKCC1 (NKCC1 pThr203/207/212; [5]): 0.112 and 0.132 and 0.122 and 0.109 | pThrNKCC1 / NKCC1 (NKCC1 pThr203/207/212; [7]): 0.022 and 0.043 and 0.035 and 0.028 | pThrNKCC1 / NKCC1 (NKCC1 pThr203/207/212; [6]): 0.008 and 0.006 and 0.004 and 0.005 | Site-2 phospho / KCC (KCC3 pThr1048; [2]): 0.281 and 0.258 and 0.279 and 0.266 | Site-2 phospho / KCC (KCC3 pThr1048; [3]): 0.143 and 0.176 and 0.159 and 0.132 | Site-2 phospho / KCC (KCC3 pThr1048; [4]): 0.021 and 0.042 and 0.035 and 0.025 | Site-2 phospho / KCC (KCC3 pThr1048; [5]): 0.271 and 0.243 and 0.219 and 0.263 | Site-2 phospho / KCC (KCC3 pThr1048; [7]): 0.186 and 0.176 and 0.131 and 0.159 | Site-2 phospho / KCC (KCC3 pThr1048; [6]): 0.052 and 0.041 and 0.03 and 0.048 | Site-1 phospho / KCC (KCC3 pThr991; [2]): 0.488 and 0.427 and 0.359 and 0.502 | Site-1 phospho / KCC (KCC3 pThr991; [3]): 0.412 and 0.376 and 0.392 and 0.431 | Site-1 phospho / KCC (KCC3 pThr991; [4]): 0.165 and 0.187 and 0.122 and 0.203 | Site-1 phospho / KCC (KCC3 pThr991; [5]): 0.455 and 0.431 and 0.5108 and 0.482 | Site-1 phospho / KCC (KCC3 pThr991; [7]): 0.419 and 0.386 and 0.354 and 0.437 | Site-1 phospho / KCC (KCC3 pThr991; [6]): 0.215 and 0.201 and 0.251 and 0.276 | pSer373 / SPAK (SPAK pSer373; [2]): 0.297 and 0.248 and 0.275 and 0.253 | pSer373 / SPAK (SPAK pSer373; [3]): 0.179 and 0.135 and 0.168 and 0.158 | pSer373 / SPAK (SPAK pSer373; [4]): 0.066 and 0.034 and 0.051 and 0.049 | pSer373 / SPAK (SPAK pSer373; [5]): 0.112 and 0.124 and 0.132 and 0.106 | pSer373 / SPAK (SPAK pSer373; [7]): 0.08 and 0.07 and 0.064 and 0.084 | pSer373 / SPAK (SPAK pSer373; [6]): 0.034 and 0.025 and 0.043 and 0.026

Cc1cc(C(C#N)c2ccc(Cl)cc2)c(Cl)cc1NC(=O)c1cc(Cl)ccc1O (stereo not shown) [ZT]
Hemisphere swelling (%) ([1]; group ZT 2.5): 11.06% and 15.88% and 13.11% and 15.27% and 16.5% and 21.75% | Infarct volume (mm3) ([1]; group ZT 2.5): 29.36 mm3 and 90.65 mm3 and 33.9 mm3 and 61.9 mm3 and 46.64 mm3 and 99.8 mm3 | Hemisphere swelling (%) ([1]; group ZT 5.0): 16.2% and 16.76% and 19.99% and 9.25% and 8.47% and 7.57% and 9.24% and 4.63% and 10.39% and 8.48% and 13.8% and 7.91% | Infarct volume (mm3) ([1]; group ZT 5.0): 48.74 mm3 and 86.87 mm3 and 49.93 mm3 and 31.43 mm3 and 42.1 mm3 and 27.75 mm3 and 25.29 mm3 and 24.11 mm3 and 27.25 mm3 and 37.2 mm3 and 90 mm3 and 33.39 mm3
